Structures can show the parent of a compound that is named as a salt.
Experiments:
P. aeruginosa = assay: MIC-based assay for potentiation of antibiotics that are known efflux pump substrates (Test A), P. aeruginosa; type: cell-based; conditions: fold lowering of MIC of antibiotic (e.g., clarithromycin and levofloxacin) with EPI compound at 1.6 to 12.5 μg/mL; Pseudomonas aeruginosa ATCC 27853
Source text: (§1) The ability of a compound disclosed herein to inhibit a bacterial efflux pump can be determined using a method like Test A or Test B as described in Example 13 and as shown in Table 1.
(§2) Test A. Minimum Inhibitory Concentration (MIC)-Based Assay for Potentiation of Antibiotics that are Known Efflux Pump Substrates:
(§3) MIC-based assays were used to evaluate the impact of potential efflux pump inhibiting (EPI) compounds on the MICs of antibiotics (e.g., clarithromycin and levofloxacin) known to be substrates for Gram-negative bacterial efflux pumps. The assays were conducted in accordance with Clinical and Laboratory Standards Institute (CLSI) guidelines for broth microdilution, with the modification that assays were conducted in the presence and absence of the test EPI compounds. When present, the EPI compounds were added to cation-adjusted Mueller-Hinton (CAMH) broth (Becton, Dickinson and Co., Franklin Lakes, N.J.) at a final concentration in the range of 1.6 to 12.5 μg/mL.
(§4) Log-phase Gram-negative bacteria were added to 96-well microtiter plates (at 5×10^5 colony forming units (CFU) per mL) containing two-fold serial dilutions of antibiotic in CAMH broth either in the absence or presence of the test EPI compounds. In all assays, each serial dilution of antibiotic was present in duplicate. The final volume in each well was 0.1 mL, and the microtiter plates were incubated aerobically for 24 hours at 37° C. Bacterial growth was then monitored by measuring the optical density (OD) at 600 nm using a VersaMax® plate reader (Molecular Devices, Inc., Sunnyvale, Calif.), with the MIC being defined as the lowest compound concentration at which growth was ≥90% inhibited compared to antibiotic-free control. The following Gram-negative bacterial strains were included in these assays: • Escherichia coli ATCC 25922 • Klebsiella pneumoniae ATCC 13883 and ATCC 10031 • Pseudomonas aeruginosa ATCC 27853. Test B. Fluorescence-Based Cellular Assay for Efflux Inhibition: […]

E. coli = assay: MIC-based assay for potentiation of antibiotics that are known efflux pump substrates (Test A), E. coli; type: cell-based; conditions: fold lowering of MIC of antibiotic (e.g., clarithromycin and levofloxacin) with EPI compound at 1.6 to 12.5 μg/mL; Escherichia coli ATCC 25922
Source text: as §1, §2, §3, §4

NCCC[C@H](N)CNC(CCc1ccccc1)CCc1ccccc1 [Example 1, (S)—N^1-(1,5-Diphenylpentan-3-yl)pentane-1,2,5-triamine 3 TFA]
Active in P. aeruginosa (P. aeruginosa): <2x | Active in E. coli (E. coli): ≥8x

NC[C@@H](N)CCCNC(CCc1ccccc1)CCc1ccccc1 [Example 2, (S)—N^5-(1,5-diphenylpentan-3-yl)pentane-1,2,5-triamine 3 TFA]
Active in P. aeruginosa (P. aeruginosa): ≥4x | Active in E. coli (E. coli): ≥16x

NCC[C@H](N)CNC(CCc1ccccc1)CCc1ccccc1 [Example 3, (S)—N^1-(1,5-diphenylpentan-3-yl)butane-1,2,4-triamine 3TFA]
Active in P. aeruginosa (P. aeruginosa): ≥2x | Active in E. coli (E. coli): ≥4x

NC[C@@H](N)CCNC(CCc1ccccc1)CCc1ccccc1 [Example 4, (S)—N^4-(1,5-diphenylpentan-3-yl)butane-1,2,4-triamine 3 TFA]
Active in P. aeruginosa (P. aeruginosa): ≥2x | Active in E. coli (E. coli): ≥2x

NCC[C@H](N)CCNC(CCc1ccccc1)CCc1ccccc1 [Example 5, (S)—N^1-(1,5-Diphenylpentan-3-yl)pentane-1,3,5-triamine 3 TFA]
Active in P. aeruginosa (P. aeruginosa): ≥16x | Active in E. coli (E. coli): ≥32x

NCCC[C@H](N)CNCC(CCc1ccccc1)CCc1ccccc1 [Example 7, (S)—N^1-(2-phenethyl-4-phenylbutyl)pentane-1,2,5-triamine 3TFA]
Active in P. aeruginosa (P. aeruginosa): ≥32x | Active in E. coli (E. coli): ≥32x

NC[C@@H](N)CCCNCC(CCc1ccccc1)CCc1ccccc1 [Example 8, (S)—N^5-(2-phenethyl-4-phenylbutyl)pentane-1,2,5-triaminium 2,2,2-trifluoroacetate]
Active in P. aeruginosa (P. aeruginosa): ≥32x | Active in E. coli (E. coli): ≥32x

CC(C)C(N)CC[C@H](N)CNCC(CCc1ccccc1)CCc1ccccc1 (stereo partly shown) [Example 9]
Active in P. aeruginosa (P. aeruginosa): <2x | Active in E. coli (E. coli): ≥128x

CC(C)C(N)CC[C@H](N)CNC(CCc1ccccc1)CCc1ccccc1.Cl.Cl.Cl (stereo partly drawn) [Example 10, (2S)—N^1-(1,5-diphenylpentan-3-yl)-6-methylheptane-1,2,5-triaminium chloride]
Active in P. aeruginosa (P. aeruginosa): <2x | Active in E. coli (E. coli): ≥256 x

NCC(N)COC(CCc1ccccc1)CCc1ccccc1 (stereo not shown) [Example 11, 3-((1,5-diphenylpentan-3-yl)oxy)propane-1,2-diamine]
Active in P. aeruginosa (P. aeruginosa): <2x | Active in E. coli (E. coli): <2x

NCC(N)COCC(CCc1ccccc1)CCc1ccccc1 (stereo not shown) [Example 12, 3-(2-phenethyl-4-phenylbutoxy)propane-1,2-diamine]
Active in P. aeruginosa (P. aeruginosa): <2x | Active in E. coli (E. coli): 8 x

— patent US10556854B2, “Bacterial efflux pump inhibitors” (RUTGERS, THE STATE UNIVERSITY OF NEW JERSEY, priority 2016, dated 2020)
